Data on 6 compounds can be found in patent US10329304B2, “Compounds and methods for inhibition of hedgehog signaling and phosphodiesterase” (Vanderbilt University, priority 2014, dated 2019).

“Also recorded” adds a separate entry of the source. Like-named read-outs stand apart in the source and are kept apart here.

Series [1] deals with IFT88 localization. Put plainly: IFT88 immunostaining in NIH3T3 cells. The format is cell-based. To be noted: EGM 5 μM, ciliobrevin D 100 μM. The source says: To investigate whether the disruption of the cilium-to-nucleus trafficking of Gli2 by eggmanone was due to a general defect in the retrograde transport within the primary cilium, we compared the effect of the cytoplasmic dynein motor inhibitor ciliobrevin D with the effect of eggmanone on the intraflagellar transport protein 88 (IFT88) trafficking^19. […] Thus, the effects of eggmanone on Gli2 trafficking is specific, rather than an indirect consequence of a global defect in ciliary transport machinery.

Series [2] relates to Hedgehog signaling (TM3-Gli-Luc). Description: TM3-Gli-Luc luciferase reporter assay stimulated with 20 nM SAG. It counts as cell-based. The procedure, abridged: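 TM3-Gli-Luc cells on 0.1% gelatin in DMEM/F12 with 2.5% FBS, treated 48 h with compound plus 20 nM SAG. Steady-Glo luminescence normalized to CellTiter-Glo viability, DMSO-only (no SAG) background subtracted, percent of SAG control. EC50 averaged from ≥2 independent days ±SEM.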

Series [3] deals with TM3-Gli-Luc cells. Put plainly: TM3-Gli-Luc cell viability (Cell Titer Glo, LD50). The format is cell-based. The procedure: On the day of cell plating, 96-well plates were coated with 50 μL/well of sterile 0.1% gelatin for 5 minutes then aspirated and replaced with 50 μL/well of TM3 Culture Medium. TM3-Gli-Luc cells were seeded at a density of 5,000 cells/well in TM3 Culture Medium and incubated for 24 hours. A master mix of 20 nM SAG in TM3Luc Medium was prepared, and small molecule solutions were prepared by adding the desired amount of compound from 10 mM DMSO stock to TM3Luc Medium containing 20 nM SAG. Negative control was prepared by adding an equi-volume amount of DMSO as compared to small molecule treated conditions to TM3Luc Medium not containing SAG. Cell plating medium was aspirated and replaced with 100 μL/well of prepared small molecule-containing media, and plates were incubated for 48 hours before proceeding to luciferase activity and cell viability reading.
TM3Luc Medium from compound treated plates was aspirated and replaced with 82 μL/well of Glo Lysis Buffer (Promega, Madison, Wis., USA), and plates were shaken at 300 rpm and room temperature for 12 minutes. Lysate was split between two white 96-well plates, 45 μL/well and 25 μL/well for luciferase reading and cell viability respectively. For luciferase activity monitoring, 45 μL/well of Steady Glo (Promega, Madison, Wis., USA) was added to 45 μL/well of cell lysate, incubated at room temperature for 5 minutes, then luminescence was measured on a Turner Biosystems Modulus Microplate Reader (Sunnyvale, Calif., USA) with an integration time of 0.5 seconds. For cell viability measurement, 25 μL/well of Cell Titer Glo (Promega, Madison, Wis., USA) (prepared by 1:10 dilution with Glo Lysis Buffer) was added to 25 μL/well of cell lysate, incubated at room temperature for 5 minutes, then luminescence was measured as above.
All raw data was divided by the average of positive control cell titer data to arrive at percent cells remaining compared to positive control. […] At least two independent assays tested on separate days were averaged to provide LD50±standard error of the mean.
(ATP-based viability assays read luminescence as a measure of living cells.)

The test system of series [4] is Gli1 transcription. Description: Sufu−/− mouse embryonic fibroblasts qRT-PCR. It counts as cell-based. To be noted: Gli1 and Ptch1. The source says:
In light of EGM1's ability to halt Hh transcriptional activity at a node downstream of the negative regulator Sufu, and thus also downstream of Smo, we sought to confirm mode of action retention with our most promising analogs. Therefore, we employed Sufu−/− mouse embryonic fibroblasts (MEF) that display constitutively active transcription of Hh target genes Gli1 and Ptch1 and monitored the ability of our optimized analogs to repress signaling via quantitative reverse transcription-PCR (qRT-PCR). […] We then evaluated improved analogs from multiple structural classes including those from Table 1 with cyclohexylthiophene cores as well as from Table 13 with structurally distinct core modifications.
Sufu^−/− cells were seeded into 12-well plates at a density of 100,000 cells/well in D10 FBS and incubated for 24 hours. Small molecule solutions were prepared by adding the desired amount of compound from 10 mM DMSO stock to D0.5 FBS. Negative control was prepared by adding an equi-volume amount of DMSO to D0.5 FBS as compared to small molecule treated conditions. Cell plating medium was aspirated and replaced with 1 mL of prepared small molecule-containing media, and plates were incubated for 24 hours before proceeding to RNA isolation.
Cells were washed 1× with 1× phosphate-buffered saline (PBS) then RNA was isolated using the Qiagen RNeasy Mini Kit (Qiagen, Germantown, Md., USA) according to the manufacturer's protocol, eluting RNA from the spin column with 30 μL of RNase-free water. RNA was placed on ice and immediately subjected to reverse transcription. Remaining RNA was stored at −80° C.
Reverse transcription polymerase chain reaction (RT-PCR) was performed with the Applied Biosystems High Capacity cDNA Reverse Transcription Kit (ThermoFisher Scientific, Waltham, Mass., USA) using an Eppendorf MasterCycler. Each 20 μL reaction contained 0.5 μg of total RNA, 2 μL of 10×RT Buffer, 0.8 μL of 25×dNTP Mix (100 mM), 2 μL of 10×RT Random Primers, 1 μL of MultiScribe® Reverse Transcriptase (50 U/μL), 1 μL of Recombinant RNasin® Ribonuclease Inhibitor (40 U/μL) (Promega, Madison, Wis., USA), and nuclease-free water. Reverse transcription was performed with the following program: 25° C. for 10 minutes, 37° C. for 120 minutes, and 85° C. for 5 minutes. The cDNA was subjected to quantitative real-time PCR (Q-PCR) or stored at −20° C.
Quantitative real-time PCR was performed on an Applied Biosystems 7900 HT Fast Real Time PCR System in 384-well format. Each cDNA sample was assayed in triplicate with both probe of interest and control probe. Master mixes for each probe were prepared corresponding to 10 μL of Applied Biosystems TaqMan Universal PCR Master Mix (ThermoFisher Scientific, Waltham, Mass., USA), 1 μL of primer, and nuclease-free water corresponding to a volume providing 20 μL reactions when loading an average of 50 ng of cDNA. Quantitative real-time PCR was run with the following thermal cycling protocol: 50° C. for 2 min., 95° C. for 10 min., and 40 cycles of 95° C. for 15 seconds, 60° C. for 1 min., then fluorescence reading. The following FAM probes were purchased from Life Technologies (Carlsbad, Calif., USA): mouse GAPDH, Mm99999915_g1; mouse Gli1, Mm00494646_g1; mouse Ptch1, Mm01306905_m1.
Quantitative real-time PCR data for Hh signaling inhibition was quantitated using the ΔΔCt method. Control probe values were subtracted from probe of interest values to arrive at the ΔCt value. The ΔCt value was transformed by 2-^ΔCt to arrive at the ΔΔCt value. All ΔΔCt values were divided by the average negative control ΔΔCt value to provide percent Hh signaling activity. Percent inhibition values were derived by calculating the inverse of percent activity. Data is reported as mean±standard error of the mean (SEM), representing at least two biological replicates, each quantitated in triplicate.
On the technique in general: Real-time PCR tracks product formation cycle by cycle.

Series [5] is described as follows: Lipophilic efficiency (LipE = pEC50 − cLogP) and cLogP. The procedure:
Therefore, we prioritized phenotypic analog evaluation in the Gli-responsive luciferase reporter line TM3-Gli-Luc stimulated with 20 nM Smo agonist (SAG) while concurrently monitoring non-specific cellular toxicity. Additionally, lipophilic efficiency (LipE), a concurrent readout of a compound's potency (pEC50) and lipophilicity (cLogP) derived by subtracting the latter from the former, was utilized to optimize solubility properties (Table 12B), allowing for straightforward tracking of compounds with improvements in both parameters.

For series [6], the target named is T1, Smo cyclopamine (Cyc) binding site (Homo sapiens, UniProt Q99835).
T1 construct: expressed in transfected cells; host or cells: HEK-293T
T1 sequence (Q99835 28-787): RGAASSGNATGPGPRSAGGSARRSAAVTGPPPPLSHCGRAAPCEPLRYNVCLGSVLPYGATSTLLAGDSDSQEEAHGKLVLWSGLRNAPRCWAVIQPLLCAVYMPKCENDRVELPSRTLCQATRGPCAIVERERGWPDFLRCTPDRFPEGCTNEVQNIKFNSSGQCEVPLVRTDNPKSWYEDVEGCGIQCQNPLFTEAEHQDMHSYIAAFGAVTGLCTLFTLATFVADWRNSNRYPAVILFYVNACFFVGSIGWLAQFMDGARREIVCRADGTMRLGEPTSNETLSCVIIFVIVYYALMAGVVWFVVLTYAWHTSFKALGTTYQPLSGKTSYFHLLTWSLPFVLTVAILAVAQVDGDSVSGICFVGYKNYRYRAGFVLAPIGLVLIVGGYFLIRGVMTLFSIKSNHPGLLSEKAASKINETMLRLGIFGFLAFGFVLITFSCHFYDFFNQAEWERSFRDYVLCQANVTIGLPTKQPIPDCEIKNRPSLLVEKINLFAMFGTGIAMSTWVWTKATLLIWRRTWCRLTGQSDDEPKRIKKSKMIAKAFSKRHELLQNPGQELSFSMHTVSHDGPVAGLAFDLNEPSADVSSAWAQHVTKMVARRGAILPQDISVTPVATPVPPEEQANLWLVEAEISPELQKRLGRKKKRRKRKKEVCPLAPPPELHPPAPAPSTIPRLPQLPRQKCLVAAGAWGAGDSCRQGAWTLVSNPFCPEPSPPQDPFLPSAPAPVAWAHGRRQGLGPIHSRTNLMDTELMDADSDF
Put plainly: BODIPY-cyclopamine competition in HEK-293T cells overexpressing Smo. To be noted: KAAD-Cyc 200 nM; analogs at 10- to 20-fold their EC50s. The procedure: Thus, HEK-293T cells overexpressing Smo were concurrently treated with 5 nM BODIPY-Cyc and molecules of interest.

The target of series [7] is consensus PDE4D sequence (Homo sapiens, UniProt Q08499). Description: PDE4D inhibition (consensus PDE4D sequence). It counts as biochemical.
consensus PDE4D sequence, sequence (Q08499 whole entry): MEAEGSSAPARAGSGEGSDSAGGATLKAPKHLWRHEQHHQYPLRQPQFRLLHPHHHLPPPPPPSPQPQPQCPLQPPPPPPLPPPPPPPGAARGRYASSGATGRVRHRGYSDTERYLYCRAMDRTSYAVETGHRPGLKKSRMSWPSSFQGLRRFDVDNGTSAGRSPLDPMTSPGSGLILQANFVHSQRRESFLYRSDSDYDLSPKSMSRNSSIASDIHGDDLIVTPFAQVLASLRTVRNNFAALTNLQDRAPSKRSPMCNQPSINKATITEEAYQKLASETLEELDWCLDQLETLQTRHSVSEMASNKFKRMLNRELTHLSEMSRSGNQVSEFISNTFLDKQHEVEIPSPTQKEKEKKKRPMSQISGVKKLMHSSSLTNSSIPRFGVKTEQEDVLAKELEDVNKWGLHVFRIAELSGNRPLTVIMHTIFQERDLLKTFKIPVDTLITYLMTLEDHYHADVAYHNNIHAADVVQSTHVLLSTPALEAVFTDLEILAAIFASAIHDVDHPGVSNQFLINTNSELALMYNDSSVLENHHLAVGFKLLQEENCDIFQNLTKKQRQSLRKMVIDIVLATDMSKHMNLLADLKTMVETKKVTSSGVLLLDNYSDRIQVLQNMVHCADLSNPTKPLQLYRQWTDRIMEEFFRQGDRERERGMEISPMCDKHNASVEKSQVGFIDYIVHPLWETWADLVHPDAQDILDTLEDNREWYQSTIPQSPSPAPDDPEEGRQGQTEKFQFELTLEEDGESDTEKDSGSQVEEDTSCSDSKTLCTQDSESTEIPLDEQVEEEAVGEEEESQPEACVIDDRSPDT
From the text: First, the contribution of PDE4 was revisited as a potential explanation for the observed mechanistic drift.
Series [8] deals with PDE4D (Homo sapiens, UniProt Q08499). Description: PDE4 inhibition assay (PDE4D IC50). The format is biochemical. To be noted: mean ± SEM, normalized to DMSO; read-out: PDE4D IC50. The procedure, abridged:
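PDE4D incubated 60 min at room temperature in duplicate with 100 nM FAM-cAMP and compound (1% DMSO final) in Tris-HCl pH7.4, 10 mM MgCl2, 0.05% Tween 20. FAM-AMP detected with binding-agent nanobeads after a further 60 min, read at 485/528 nm.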

Where [9] appears, read: TM3-Gli-Luc reporter line stimulated with 20 nM SAG, mean ± SEM, Table 14, read-out: TM3-Gli-Luc EC50.
The mark [10] stands for this setting: TM3-Gli-Luc reporter line stimulated with 20 nM SAG, mean ± SEM, Table 13, read-out: TM3-Gli-Luc EC50.
[11] abbreviates: calculated as pEC50 - cLogP (Molinspiration Cheminformatics), Table 13.

PDE4D, sequence (Q08499 whole entry): as above

On to `N#CC(=C(O)c1ccc(Cl)cc1Cl)c1nc2cc(Cl)ccc2c(=O)[nH]1` [Ciliobrevin D, reference compound], for which the “IFT88 localization in the cilium” value is “perturbed the localization of IFT88 in the cilium” in series [1] and “severely disrupted the IFT88 localization in the cilium” in series [1] (listed as ciliobrevin D).

By EC50 is commonly meant the concentration at which the effect is half-maximal. For the compound `C=C(C)Cn1c(SCC(=O)N2CCCCC2C)nc2sc3c(c2c1=O)CCCC3` (stereo not shown) [Formula 9m], in series [2], the “reduction in potency versus EGM1” value was roughly 2 fold. Moreover, the EC50 in series [2] (20 nM SAG, mean ± standard error of the mean, read-out: TM3-Gli-Luc EC50) is 2320 ± 730 nM; in series [2] (setting [9]), 2320 ± 730 nM. The compound further returned an LD50 in series [3] of 16.7 µM. In addition, in series [3] (mean ± standard error of the mean), the “TM3-Gli-Luc LD50” value came out at 16.7 ± 0.25 µM. Moreover, the “Transcriptional inhibition in the Sufu−/− cell line, in words” value (shortened to “Transcriptional inhibition”) in series [4] was “general ability to inhibit transcriptional activity”. For the same compound, the LipE is 0.94 in series [5] (Calculated as pEC50 - cLogP, Molinspiration Cheminformatics) and 0.94 in series [5] (pEC50 - cLogP, Table 14).

As to `O=C(CSc1nc2ccccc2c(=O)n1C1CC1)c1cccs1` [Formula 14b], the “Hh inhibitory activity / potency in words” value in series [2] (20 nM SAG) is recorded as “potency improvements over EGM1”. For the same compound, the 50% effective concentration (EC50) in series [2] (20 nM SAG, read-out: EC50) was 685 nM; in series [2] (setting [10]), 685 ± 20 nM; in series [2] (setting [9]), 685 ± 20 nM. Besides, in series [4], the “Transcriptional inhibition” value is “lack of Sufu−/− transcriptional inhibition”. Also, the “Displacement of BODIPY-cyclopamine (5 nM) from Smo” value (from here on “Displacement of BODIPY-cyclopamine”) in series [6] is “do not displace the binding of BODIPY-cyclopamine; also recorded: failed to compete for the Smo binding site”. For the same compound, the LipE in series [5] (setting [11]) is on record as 2.78; in series [5] (pEC50 - cLogP, Table 14), 2.78.

Turning to `O=C(CSc1nc2sccc2c(=O)n1C1CC1)c1cccs1` [Formula 19b], the EC50 in series [2] (setting [10]) and in series [2] (setting [9]) was 933 ± 100 nM in each case. The “Transcriptional inhibition” value in series [4] is “lack of Sufu−/− transcriptional inhibition”. Besides, the “Displacement of BODIPY-cyclopamine” value in series [6] is given as “do not displace the binding of BODIPY-cyclopamine; also recorded: failed to compete for the Smo binding site”. Further, the LipE in series [5] (setting [11]) is given as 2.89; in series [5] (pEC50 - cLogP, Table 14), 2.89.

As for `O=C(CSc1nc2sccc2c(=O)n1C1CC1)c1ccccc1` [Formula 19c], the “PDE4D inhibition in words” value in series [7] is listed as “only modest ICs against PDE4D”. Besides, the EC50 in series [2] (setting [10]) and in series [2] (setting [9]) was 82 ± 10 nM throughout. Further, in series [3], the Non-specific cellular toxicity result is reported as “no non-specific cellular toxicity”. Moreover, in series [4], the “Transcriptional inhibition” value was “lack of Sufu−/− transcriptional inhibition”. The “Displacement of BODIPY-cyclopamine” value in series [6] is reported as “do not displace the binding of BODIPY-cyclopamine; also recorded: failed to compete for the Smo binding site”. The LipE in series [5] (setting [11]) is on record as 3.84; in series [5] (pEC50 - cLogP, Table 14), 3.84.

For orientation: IC50 means the concentration needed to halve the response being measured. Consider `O=c1c2ccsc2nc(SCC(O)c2ccccc2)n1C1CC1` (stereo not shown) [Formula 20a], for which the IC50 in series [8] worked out at 6070 ± 1500 nM. For the same compound, the “PDE4D inhibition in words” value in series [7] is “only modest ICs against PDE4D”. In addition, the “Transcriptional inhibition” value in series [4] is “lack of Sufu−/− transcriptional inhibition”. Moreover, the “Displacement of BODIPY-cyclopamine” value in series [6] is recorded as “do not displace the binding of BODIPY-cyclopamine; also recorded: failed to compete for the Smo binding site”. The LipE in series [5] (pEC50 - cLogP, Table 14) was determined as 3.41.
